Experimental data published in patent US11814444B2, “Cyclic polypeptides for PCSK9 inhibition” (Ra Pharmaceuticals, Inc., priority 2018, dated 2023).
Numbered stars: 1 amine (or outer) side, 2 acyl side, 3 side chain; on linkers, the order of the positions; unused ones are H or OH. Bridge positions count the residues as written; N and C are the ends. Square brackets hold non-standard residues; d marks the D form. Peptide text beside a SMILES is read from it. * marks the point of attachment. X2 = O=C([C@@H]1C[C@@H](SC/C=C/C[*:3])CN1[*:1])[*:2]; X6 = CC(=O)Oc1ccc2c(c1)CN([*:1])[C@H](C(=O)[*:2])C2; Ala(1H-tetrazol-5-yl) = N[C@@H](Cc1nnn[nH]1)C(=O)O; Trp(5-F) = N[C@@H](Cc1c[nH]c2ccc(F)cc12)C(=O)O; Trp(7-aza) = N[C@@H](Cc1c[nH]c2ncccc12)C(=O)O; Pro(cis-4-F) = O=C(O)[C@@H]1C[C@H](F)CN1; mXylylene = c1cc(C[*:1])cc(C[*:2])c1; Ala(cPr) = N[C@@H](CC1CC1)C(=O)O; Hyp = O=C(O)[C@@H]1C[C@@H](O)CN1; Aad = N[C@@H](CCCC(=O)O)C(=O)O; Chg = N[C@H](C(=O)O)C1CCCCC1; Pen = CC(C)(S)[C@H](N)C(=O)O; Tle = CC(C)(C)[C@H](N)C(=O)O; αMeV = CC(C)[C@](C)(N)C(=O)O; NMeS = CN[C@@H](CO)C(=O)O; NMeA = CN[C@@H](C)C(=O)O; Nva = CCC[C@H](N)C(=O)O; Ac4c = NC1(C(=O)O)CCC1; X4 = C(CC[*:2])C[*:1]; Aib = CC(C)(N)C(=O)O; Ms = CS(=O)(=O)*; Mpa = O=C(O)CCS

Tests used:
[1] = biological target: human PCSK9 / human LDLR EGFa domain interaction (Homo sapiens, UniProt Q8NBP7); assay: TR-FRET assay of inhibition of the PCSK9-LDLR protein-protein interaction; assay type: binding; conditions: 20 nM avitag-biotinylated human PCSK9, 20 nM his-tagged human LDLR EGFa domain, 2 hours, room temperature
Method in brief: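 Half-maximal inhibition was derived by 4-parameter fitting of dose-response TR-FRET data. Each well held 20 nM His-LDLR EGFa, 20 nM avitag-biotinylated PCSK9, Eu-anti-6×His and Ulight-streptavidin (5 nM each) in 50 mM HEPES, 150 mM NaCl, 5 mM CaCl2, 0.01% BSA, 0.01% Surfactant P20, incubated 2 h at room temperature.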

[2] = biological target: PCSK9 (Homo sapiens, UniProt Q8NBP7); assay: PCSK9 Alexa FRET Standard assay (displacement of AlexaFluor647 tagged cyclic peptide Reagent A); assay type: binding; conditions: 0.5 nM PCSK9, 20 nM AF cyclic peptide Reagent A
Experimental: A solution containing 1 nM biotinylated PCSK9+2.5 nM Lance Streptavidin Europium (Strep-Eu) was made in 50 mM HEPES pH 7.4, 0.15 M NaCl, 5 mM CaCl2), 0.01% BSA, and 0.01% Surfactant P20. A separate solution containing 40 nM of the AlexaFluor tagged cyclic peptide was made in the same buffer system. An Echo was used to transfer 0.750 ul of compound to an assay plate followed by the addition of 15 ul of PCSK9+Stept-Eu and 15 ul of AF peptide. The final assay volume was 30.750 ul containing 0.5 nM PCSK9, 1.25 nM Strep-Eu, and 20 nM AF cyclic peptide. The reaction was incubated at room temperature for at least two hours prior to fluorescence measurements using an Envision Multilabel Reader. IC50 values were determined by fitting data to a sigmoidal dose-response curve using nonlinear regression. Ki was then calculated from the IC50 and the KD of AF cyclic peptide. Counts (B-counts) of the europium-labeled PCSK9 were followed to observe if compounds were […]. A fall off of the B-counts likely indicated a false positive of inhibition. Data from this procedure was reported as “A=‘numerical value’ (nanomolar)”

Chain of human PCSK9 / human LDLR EGFa domain interaction (Q8NBP7 153-692): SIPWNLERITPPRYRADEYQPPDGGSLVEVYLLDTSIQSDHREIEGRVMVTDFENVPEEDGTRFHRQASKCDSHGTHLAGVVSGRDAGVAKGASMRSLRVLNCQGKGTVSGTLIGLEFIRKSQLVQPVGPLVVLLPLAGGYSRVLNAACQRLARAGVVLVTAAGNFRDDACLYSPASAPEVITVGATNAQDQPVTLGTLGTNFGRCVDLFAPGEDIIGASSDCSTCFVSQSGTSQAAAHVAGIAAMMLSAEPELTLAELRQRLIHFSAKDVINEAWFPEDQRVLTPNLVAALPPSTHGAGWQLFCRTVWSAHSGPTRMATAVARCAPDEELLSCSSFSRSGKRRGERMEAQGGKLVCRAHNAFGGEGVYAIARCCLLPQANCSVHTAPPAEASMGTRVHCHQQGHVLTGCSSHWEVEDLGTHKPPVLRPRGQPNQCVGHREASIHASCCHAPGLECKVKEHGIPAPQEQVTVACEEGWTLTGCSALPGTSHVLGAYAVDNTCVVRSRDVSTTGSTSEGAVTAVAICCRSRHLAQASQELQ
Chain of human PCSK9 / human LDLR EGFa domain interaction (Q8NBP7 31-152 partner limits assumed): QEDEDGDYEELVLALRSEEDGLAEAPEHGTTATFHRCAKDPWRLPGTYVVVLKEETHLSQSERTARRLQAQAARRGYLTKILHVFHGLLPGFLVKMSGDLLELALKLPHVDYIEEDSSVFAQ
Chain of PCSK9 (Q8NBP7 153-692): as the sequence (Q8NBP7 153-692) above

Row | IC50 [1] [µM] | IC50 [2] [µM] | SMILES
1 | 0.1 to 1 | 0.1 to 1 | CCC[C@@H]1NC(=O)[C@H](Cc2ccc(O)cc2)NC(=O)[C@H](CCC(=O)O)NC(=O)[C@H](C2CCCCC2)NC(=O)[C@H](Cc2c[nH]c3ncccc23)NC(=O)[C@H]([C@@H](C)O)NC(=O)[C@H](Cc2c[nH]cn2)NC(=O)[C@H](Cc2ccc(O)cc2)NC(=O)[C@H](C(C)(C)C)NC(=O)CCSCc2cccc(c2)CSC[C@@H](C(N)=O)NC(=O)[C@H]([C@@H](C)O)NC1=O [Compound 273] ([Mpa][Tle]YHT[Trp(7-aza)][Chg]EY[Nva]TC-NH2; linker 1-12 via mXylylene)
2 | 21 to 50 | 1 to 21 | CC(=O)N[C@H]1CSCc2cccc(c2)CSC[C@@H](C(N)=O)NC(=O)[C@H]([C@@H](C)O)NC(=O)C(C)(C)NC(=O)[C@H](Cc2ccc(O)cc2)NC(=O)[C@H](C)NC(=O)C(C)(C)NC(=O)[C@H](Cc2c[nH]c3ncccc23)NC(=O)[C@H]([C@@H](C)O)NC(=O)[C@@H]2CCCN2C(=O)[C@H](Cc2ccc(O)cc2)NC(=O)[C@H](C(C)(C)C)NC1=O [Compound 179] (Ac-C[Tle]YPT[Trp(7-aza)][Aib]AY[Aib]TC-NH2; linker 1-12 via mXylylene)
3 | 0.1 to 1 | 1 to 21 | CCC[C@@H]1NC(=O)[C@H](Cc2c[nH]c3ncccc23)NC(=O)[C@H]([C@@H](C)O)NC(=O)[C@H](Cc2c[nH]cn2)NC(=O)[C@H](Cc2ccc(O)cc2)NC(=O)[C@H](C(C)(C)C)NC(=O)CCSCc2cccc(c2)CSC[C@@H](C(N)=O)NC(=O)[C@H]([C@@H](C)O)NC(=O)[C@H](CCC)NC(=O)[C@H](Cc2ccc(O)cc2)NC(=O)[C@H](Cc2nnn[nH]2)NC1=O [Compound 253] ([Mpa][Tle]YHT[Trp(7-aza)][Nva][Ala(1H-tetrazol-5-yl)]Y[Nva]TC-NH2; linker 1-12 via mXylylene)
4 | 0.001 to 0.1 | 0.001 to 0.1 | CCC[C@H](NC(C)=O)C(=O)N[C@H]1CSCc2cccc(c2)CSC[C@@H](C(N)=O)NC(=O)[C@H](Cc2c[nH]c3ccc(F)cc23)NC(=O)[C@@H]2C[C@H](F)CN2C(=O)[C@H](CCCNC(=N)N)NC(=O)CNC(=O)[C@H](CO)N(C)C(=O)[C@H](Cc2c[nH]c3ccc(F)cc23)NC(=O)[C@H](Cc2ccc(O)cc2)NC(=O)[C@H](C(C)(C)C)NC(=O)[C@H]([C@@H](C)CC)NC(=O)[C@H]([C@@H](C)O)NC1=O [Compound 337] (Ac-[Nva]CTI[Tle]Y[Trp(5-F)][NMeS]GR[Pro(cis-4-F)][Trp(5-F)]C-NH2; linker 2-13 via mXylylene)
5 | 1 to 21 | 1 to 21 | CCC[C@@H]1NC(=O)[C@H](Cc2c[nH]c3ncccc23)NC(=O)[C@H]([C@@H](C)O)NC(=O)[C@@H]2CCCN2C(=O)[C@H](Cc2ccc(O)cc2)NC(=O)[C@H](C(C)(C)C)NC(=O)CCSCc2cccc(c2)CSC[C@@H](C(N)=O)NC(=O)[C@H]([C@@H](C)O)NC(=O)[C@H](CCC)NC(=O)[C@H](Cc2ccc(O)cc2)NC(=O)[C@H](CCC(=O)O)NC1=O [Compound 155] ([Mpa][Tle]YPT[Trp(7-aza)][Nva]EY[Nva]TC-NH2; linker 1-12 via mXylylene)
6 | 0.1 to 1 | 1 to 21 | CCC[C@@H]1NC(=O)[C@H](Cc2ccc(O)cc2)NC(=O)[C@H](CCC(=O)O)NC(=O)[C@H](CC2CC2)NC(=O)[C@H](Cc2c[nH]c3ncccc23)NC(=O)[C@H]([C@@H](C)O)NC(=O)[C@H](Cc2c[nH]cn2)NC(=O)[C@H](Cc2ccc(O)cc2)NC(=O)[C@H](C(C)(C)C)NC(=O)CCSCc2cccc(c2)CSC[C@@H](C(N)=O)NC(=O)[C@H]([C@@H](C)O)NC1=O [Compound 264] ([Mpa][Tle]YHT[Trp(7-aza)][Ala(cPr)]EY[Nva]TC-NH2; linker 1-12 via mXylylene)
7 | 1 to 21 | 1 to 21 | CCC[C@@H]1NC(=O)[C@H](Cc2c[nH]c3ncccc23)NC(=O)[C@H]([C@@H](C)O)NC(=O)[C@H](Cc2c[nH]cn2)NC(=O)[C@H](Cc2ccc(O)cc2)NC(=O)[C@H](C(C)(C)C)NC(=O)CCSCc2cccc(c2)CSC[C@@H](C(N)=O)NC(=O)[C@H]([C@@H](C)O)NC(=O)[C@H](CCC)NC(=O)[C@H](Cc2c[nH]c3ccc(F)cc23)NC(=O)[C@H](CCC(=O)O)NC1=O [Compound 261] ([Mpa][Tle]YHT[Trp(7-aza)][Nva]E[Trp(5-F)][Nva]TC-NH2; linker 1-12 via mXylylene)
8 | 50 to 100 | 50 to 100 | CCC[C@@H]1NC(=O)[C@H](Cc2ccc(O)cc2)NC(=O)[C@H](CCC(=O)O)NC(=O)[C@H](C)N(C)C(=O)[C@H](Cc2c[nH]c3ncccc23)NC(=O)[C@H]([C@@H](C)O)NC(=O)[C@H](Cc2c[nH]cn2)NC(=O)[C@H](Cc2ccc(O)cc2)NC(=O)[C@H](C(C)(C)C)NC(=O)CCSCc2cccc(c2)CSC[C@@H](C(N)=O)NC(=O)[C@H]([C@@H](C)O)NC1=O [Compound 207] ([Mpa][Tle]YHT[Trp(7-aza)][NMeA]EY[Nva]TC-NH2; linker 1-12 via mXylylene)

Second part, the compound before the results:

Row | SMILES | IC50 [1] [µM] | IC50 [2] [µM]
9 | CNC(=O)[C@H]1CSCc2cccc(c2)CSC[C@H](NC(C)=O)C(=O)N[C@@H](C(C)(C)C)C(=O)N[C@@H](Cc2ccc(O)cc2)C(=O)N2CCC[C@H]2C(=O)N[C@@H]([C@@H](C)O)C(=O)N[C@@H](Cc2c[nH]c3ncccc23)C(=O)NC(C)(C)C(=O)N[C@@H](C)C(=O)N[C@@H](Cc2ccc(O)cc2)C(=O)N[C@@](C)(C(C)C)C(=O)N[C@@H]([C@@H](C)O)C(=O)N1 [Compound 189] (Ac-C[Tle]YPT[Trp(7-aza)][Aib]AY[αMeV]T[dC]-NHMe; linker 1-12 via mXylylene) | 21 to 50 | 1 to 21
10 | CC(C)[C@]1(C)NC(=O)[C@H](Cc2ccc(O)cc2)NC(=O)[C@H](C)NC(=O)C2(CCC2)NC(=O)[C@H](Cc2c[nH]c3ncccc23)NC(=O)[C@H]([C@@H](C)O)NC(=O)[C@@H]2CCCN2C(=O)[C@H](Cc2ccc(O)cc2)NC(=O)[C@H](C(C)(C)C)NC(=O)[C@@H](NS(C)(=O)=O)CSCc2cccc(c2)CSC[C@H](C(N)=O)NC(=O)[C@H]([C@@H](C)O)NC1=O [Compound 192] (Ms-C[Tle]YPT[Trp(7-aza)][Ac4c]AY[αMeV]T[dC]-NH2; linker 1-12 via mXylylene) | 0.001 to 0.1 | 0.001 to 0.1
11 | CC(=O)N[C@H]1CSCc2cccc(c2)CSC[C@H](C(N)=O)NC(=O)[C@H]([C@@H](C)O)NC(=O)[C@](C)(C(C)C)NC(=O)[C@H](Cc2ccc(O)cc2)NC(=O)[C@H](C)NC(=O)C2(CCC2)NC(=O)[C@H](Cc2c[nH]c3ncccc23)NC(=O)[C@H]([C@@H](C)O)NC(=O)[C@@H]2CCCN2C(=O)[C@H](Cc2ccc(O)cc2)NC(=O)[C@H](C(C)(C)C)NC1=O [Compound 185] (Ac-C[Tle]YPT[Trp(7-aza)][Ac4c]AY[αMeV]T[dC]-NH2; linker 1-12 via mXylylene) | 0.001 to 0.1 | 0.001 to 0.1
12 | CCC[C@@H]1NC(=O)[C@H](Cc2c[nH]c3ncccc23)NC(=O)[C@H]([C@@H](C)O)NC(=O)[C@@H]2CCCN2C(=O)[C@H](Cc2ccc(O)cc2)NC(=O)[C@H](C(C)(C)C)NC(=O)[C@@H](NC(C)=O)CCCC(=O)NCCCC[C@@H](C(N)=O)NC(=O)[C@H]([C@@H](C)O)NC(=O)[C@H](CCC)NC(=O)[C@@H]2Cc3ccc(OC(C)=O)cc3CN2C(=O)[C@H](C)NC1=O [Compound 074] (Ac-[Aad][Tle]YPT[Trp(7-aza)][Nva]A[X6][Nva]TK-NH2; lactam 1-12) | 0.1 to 1 | 0.1 to 1
13 | CC(=O)N[C@H]1CCCCNC(=O)CCC[C@@H](C(N)=O)NC(=O)[C@H]([C@@H](C)O)NC(=O)[C@](C)(C(C)C)NC(=O)[C@H](Cc2ccc(O)cc2)NC(=O)[C@H](C)NC(=O)C(C)(C)NC(=O)[C@H](Cc2c[nH]c3ncccc23)NC(=O)[C@H]([C@@H](C)O)NC(=O)[C@@H]2C[C@@H]3CN2C(=O)[C@H](Cc2ccc(O)cc2)NC(=O)[C@@H](NC1=O)C(C)(C)SC/C=C/CS3 [Compound 350] (Ac-K[Pen]Y[X2]T[Trp(7-aza)][Aib]AY[αMeV]T[Aad]-NH2; lactam 1-12; thioether 2-4) | 0.1 to 1 | 0.1 to 1
14 | CC(=O)N[C@H]1CSCc2cccc(c2)CSC[C@@H](C(N)=O)NC(=O)[C@H]([C@@H](C)O)NC(=O)[C@](C)(C(C)C)NC(=O)[C@H](Cc2ccc(O)cc2)NC(=O)[C@H](C)NC(=O)C2(CCC2)NC(=O)[C@H](Cc2c[nH]c3ncccc23)NC(=O)[C@H]([C@@H](C)O)NC(=O)[C@@H]2CCCN2C(=O)[C@H](Cc2ccc(O)cc2)NC(=O)[C@H](C(C)(C)C)NC1=O [Compound 183] (Ac-C[Tle]YPT[Trp(7-aza)][Ac4c]AY[αMeV]TC-NH2; linker 1-12 via mXylylene) | 21 to 50 | 1 to 21
15 | CC(=O)N[C@H]1CSCc2cccc(c2)CSC[C@H](C(N)=O)NC(=O)[C@H]([C@@H](C)O)NC(=O)[C@](C)(C(C)C)NC(=O)[C@H](Cc2ccc(O)cc2)NC(=O)[C@H](C)NC(=O)C2(CCC2)NC(=O)[C@H](Cc2c[nH]c3ncccc23)NC(=O)[C@H]([C@@H](C)O)NC(=O)[C@@H]2C[C@@H]3CN2C(=O)[C@H](Cc2ccc(O)cc2)NC(=O)[C@H](NC1=O)[C@H](C)OCCCCO3 [Compound 343] (Ac-C[dT]Y[Hyp]T[Trp(7-aza)][Ac4c]AY[αMeV]T[dC]-NH2; linker 1-12 via mXylylene; linker 2-4 via X4) | 21 to 50 | 1 to 21
